The record followed here is ChEMBL document CHEMBL1158685, “Potent CYP3A4 inhibitory constituents of Piper cubeba” (J Nat Prod, 2005).

One test addresses Cytochrome P450 2D6 (Homo sapiens, UniProt P10635). Nature of the test: Inhibition of human liver microsome CYP2D6 in assessed as [14C]formaldehyde formation. The format is ADME, microsomes. (Liver microsomes are a subcellular fraction often used to study metabolism.)
The next test concerns the target Cytochrome P450 3A4 (Homo sapiens, UniProt P08684). Kind of test: Inhibition of human liver microsome CYP3A4 in assessed as [14C]formaldehyde formation. Format: ADME, microsomes.

Where only a bound is given, the exact number is not on record here.

Cytochrome P450 3A4, sequence (P08684 whole entry): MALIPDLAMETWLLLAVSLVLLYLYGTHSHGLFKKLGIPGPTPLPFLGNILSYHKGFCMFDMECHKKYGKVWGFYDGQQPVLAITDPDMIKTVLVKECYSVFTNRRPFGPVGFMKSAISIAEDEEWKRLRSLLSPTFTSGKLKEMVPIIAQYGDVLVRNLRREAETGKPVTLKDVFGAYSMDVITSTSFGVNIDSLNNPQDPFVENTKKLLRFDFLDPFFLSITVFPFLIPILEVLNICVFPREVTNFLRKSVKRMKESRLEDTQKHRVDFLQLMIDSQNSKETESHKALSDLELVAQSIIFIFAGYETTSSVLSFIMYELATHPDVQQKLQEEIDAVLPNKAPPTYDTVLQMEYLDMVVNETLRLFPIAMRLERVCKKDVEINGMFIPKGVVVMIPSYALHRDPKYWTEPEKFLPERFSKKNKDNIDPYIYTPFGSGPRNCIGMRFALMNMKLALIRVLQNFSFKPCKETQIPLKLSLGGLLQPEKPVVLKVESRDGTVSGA
Cytochrome P450 2D6, sequence (P10635 whole entry): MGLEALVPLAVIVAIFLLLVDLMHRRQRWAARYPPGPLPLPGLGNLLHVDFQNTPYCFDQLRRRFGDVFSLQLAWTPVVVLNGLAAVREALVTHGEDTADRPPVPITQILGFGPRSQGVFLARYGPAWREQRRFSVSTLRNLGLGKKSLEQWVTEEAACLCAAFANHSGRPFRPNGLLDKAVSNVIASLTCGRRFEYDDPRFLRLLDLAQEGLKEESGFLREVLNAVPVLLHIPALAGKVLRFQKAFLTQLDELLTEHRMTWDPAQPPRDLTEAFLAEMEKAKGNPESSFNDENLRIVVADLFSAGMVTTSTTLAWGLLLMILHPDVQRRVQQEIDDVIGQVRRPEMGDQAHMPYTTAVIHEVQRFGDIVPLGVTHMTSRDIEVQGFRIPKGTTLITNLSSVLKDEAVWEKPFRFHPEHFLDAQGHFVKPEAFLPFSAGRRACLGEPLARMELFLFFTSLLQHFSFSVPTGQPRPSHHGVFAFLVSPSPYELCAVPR

As to `O[C@H]1OC[C@H](Cc2ccc3c(c2)OCO3)[C@H]1Cc1ccc2c(c1)OCO2`, the half-maximal inhibitory concentration (IC50) turned out to be 35.5 µM on Cytochrome P450 2D6 and 9.1 µM on Cytochrome P450 3A4.

Take `COc1cc(C[C@@H](CO)[C@H](CO)Cc2ccc3c(c2)OCO3)cc(OC)c1OC`: the half-inhibitory concentration (IC50) is over 100 µM on Cytochrome P450 2D6 and 0.8 µM on Cytochrome P450 3A4.

As to `COc1cc(C[C@H]2C(=O)OC[C@@H]2Cc2ccc3c(c2)OCO3)cc(OC)c1OC`, the IC50 at Cytochrome P450 2D6 amounted to 95.7 µM; on Cytochrome P450 3A4, 1 µM.

Consider `COc1cc(C[C@H]2COC(=O)[C@@H]2Cc2cc(OC)c(OC)c(OC)c2)cc(OC)c1OC`, for which the half-maximal inhibitory concentration (IC50) at Cytochrome P450 2D6 was over 100 µM; at Cytochrome P450 3A4, 14.9 µM.

Regarding `COc1cc(C[C@H]2C(O)OC[C@@H]2Cc2ccc3c(c2)OCO3)cc(OC)c1OC` (stereo not given in full), the IC50 was over 100 µM at Cytochrome P450 2D6 and 0.83 µM at Cytochrome P450 3A4.

`COc1cc(C[C@H]2COC(O)[C@@H]2Cc2cc(OC)c(OC)c(OC)c2)cc(OC)c1OC` (stereo not given in full): the 50% inhibitory concentration (IC50) on Cytochrome P450 2D6 was over 100 µM; at Cytochrome P450 3A4, 15 µM.

With `COc1cc(OC)c(OC)cc1CC(C)=O`, the results for the IC50 at Cytochrome P450 2D6 and on Cytochrome P450 3A4 were over 100 µM and 28.7 µM, respectively.

As to `COc1cc(C[C@H]2COC(=O)[C@@H]2Cc2cc(OC)c3c(c2)OCO3)cc(OC)c1O`, the half-maximal inhibitory concentration (IC50) on Cytochrome P450 2D6 was over 100 µM.

For `COc1cc(C[C@@H]2[C@@H](Cc3cc(OC)c4c(c3)OCO4)CO[C@@H]2O)cc(OC)c1OC`, the IC50 on Cytochrome P450 2D6 is over 100 µM; at Cytochrome P450 3A4, 0.83 µM.

`CC1=C[C@@H](O)[C@@]23O[C@]2(C)C[C@@H]2OC(=O)C(C)=C2C[C@@H]13`: the IC50 at Cytochrome P450 2D6 was over 100 µM; on Cytochrome P450 3A4, 98.2 µM.

Regarding `CC1=CC(=O)C2=C(C)C[C@@H]3OC(=O)C(C)=C3C[C@@H]12`, the IC50 on Cytochrome P450 2D6 was over 100 µM; on Cytochrome P450 3A4, 8.8 µM.

In the case of `CO[C@@H]1OC[C@H](Cc2ccc3c(c2)OCO3)[C@H]1Cc1ccc2c(c1)OCO2`, the values for the concentration for half-maximal inhibition (IC50) at Cytochrome P450 2D6 and at Cytochrome P450 3A4 were over 100 µM and 7.7 µM, respectively.

Regarding `OC[C@H](Cc1ccc2c(c1)OCO2)[C@H](CO)Cc1ccc2c(c1)OCO2` [DIHYDROCUBEBIN], the half-inhibitory concentration (IC50) on Cytochrome P450 2D6 amounted to 17.5 µM; on Cytochrome P450 3A4, 9.5 µM.

Consider `CCOc1cc(C[C@H]2COC(O)[C@@H]2Cc2cc(OC)c(OC)c(OC)c2)cc2c1OCO2` (stereo not given in full) [ETHOXYCLUSIN], for which the figures for the IC50 at Cytochrome P450 2D6 and at Cytochrome P450 3A4 were 87.9 µM and 0.44 µM, respectively.

For `O=C1OC[C@H](Cc2ccc3c(c2)OCO3)[C@H]1Cc1ccc2c(c1)OCO2` [HINOKININ], the 50% inhibitory concentration (IC50) at Cytochrome P450 2D6 worked out at 26.5 µM; at Cytochrome P450 3A4, 8 µM.

`COc1cc(OC)c([C@@H]2[C@H](C)[C@@H](C)[C@H]2c2cc(OC)c(OC)cc2OC)cc1OC` [MAGNOSALIN]: the figures for the IC50 on Cytochrome P450 2D6 and at Cytochrome P450 3A4 were over 100 µM and 85.4 µM, respectively.

On to `COc1cc([C@H]2OC[C@@H]3C(c4cc(OC)c(O)c(OC)c4)OC[C@H]23)ccc1O` (stereo not given in full) [MEDIORESINOL], for which the IC50 was over 100 µM at Cytochrome P450 2D6 and 13.7 µM on Cytochrome P450 3A4.

Take `C/C=C/c1cc(OC)c(OC)cc1OC` [TRANS-ASARONE]: the IC50 at Cytochrome P450 2D6 was over 100 µM; on Cytochrome P450 3A4, 92.3 µM.

What is called IC50 is the midpoint of a concentration-inhibition curve.
